Assay results from EP0361341A2, “Therapeutics for aids based on inhibitors of HIV protease” (MILES INC., priority 1988, dated 1990).

Tested on: HIV-I
Experiment: p24 antigen capture assay in HIV-I infected H9 lymphocytes (in vivo assay of HIV protease activity, Example 53)
Assay type: cell-based
Settings: H9 lymphocytes infected with HIV-I, three days at 37 C, relative to infected, untreated cultures; read-out: concentration showing 50% inhibition of p24 formation
Procedure: A p24 capture assay (see Example 50 hereinbelow) provides an "in vivo" method for determining HIV-protease activity. The inhibitor is added to cells infected with HIV, […]. Inhibition of propagation of HIV-protease in cells is measured by the absence or presence of p24, which is generated by HIV protease.
H9 lymphocytes (1x 10^7 cells/ml) were incubated in the presence or absence of HIV-I for 1 hour at 37 C. Cells were washed thoroughly to remove unadsorbed virions and resuspended at 4x10^5 cells/ml in culture medium. Aliquots (one milliliter) were placed in wells of 24 well culture plates containing an equal volume of test compound (diluted in culture medium). After incubation for three days at 37 C, cell density of uninfected cultures was determined to assess toxicity of test compound. A p24 antigen capture assay was used to determine the level of HIV infection in HIV treated cultures. The ability of test compounds to inhibit HIV replication was measured at different concentrations of test compound relative to infected, untreated cultures.

IC50: 200 µM
Compound: CC[C@H](C)[C@H](NC(=O)[C@@H]1CCCN1CC(Cc1ccccc1)NC(=O)[C@H](CC(N)=O)NC(=O)[C@H](Cc1ccccc1)NC(=O)OC(C)(C)C)C(=O)OCc1ccccc1 (stereo partly drawn) [Example 25, N-[N-[2-[[N2-[N-[(1,1-Dimethylethoxy)carbonyl]-L-phenylalanyl]-L-asparagyl]amino]-3-phenylpropyl]-L-prolyl]-L-isoleucinbenzylester]
